{"source": "ChEMBL document CHEMBL1687756", "about": "(Antimicrob Agents Chemother, 2010)", "key": {"[1]": {"test": "AUC (0 to last) in Beagle dog at 5 mg/kg administered intramuscularly after 184 days", "assay_type": "ADME, organism-based, Canis lupus familiaris", "parameters": "dose 5 mg/kg, route intramuscular, time 0 - last", "settings": "plasma, im"}, "Canis familiaris": {"tested_on": "Canis familiaris", "test": "Tmax in Beagle dog at 5 mg/kg, sc after 184 days", "assay_type": "ADME, organism-based, Canis lupus familiaris", "parameters": "dose 5 mg/kg, route subcutaneous", "settings": "in vivo, 4416 h"}, "[2]": {"test": "(§1) Plasma concentration in Beagle dog at 5 mg/kg administered intramuscularly after 3 months", "assay_type": "ADME, organism-based, Canis lupus familiaris", "parameters": "dose 5 mg/kg, route intramuscular", "settings": "im"}, "Plasma [3]": {"tested_on": "Plasma", "test": "as §1", "assay_type": "ADME, organism-based, Canis lupus familiaris", "parameters": "dose 5 mg/kg, route intramuscular", "settings": "in vivo, im, 2191.5 h, BLD = below limit of detection"}, "[4]": {"test": "(§2) Plasma concentration in Beagle dog at 5 mg/kg administered intramuscularly after 6 months", "assay_type": "ADME, organism-based, Canis lupus familiaris", "parameters": "dose 5 mg/kg, route intramuscular", "settings": "im"}, "Plasma [5]": {"tested_on": "Plasma", "test": "as §2", "assay_type": "ADME, organism-based, Canis lupus familiaris", "parameters": "dose 5 mg/kg, route intramuscular", "settings": "in vivo, im, 4383 h, BLD = below limit of detection"}, "[6]": {"test": "Plasma concentration in Beagle dog at 5 mg/kg, sc after 3 months", "assay_type": "ADME, organism-based, Canis lupus familiaris", "parameters": "dose 5 mg/kg, route subcutaneous"}, "[7]": {"test": "Drug level in Beagle dog muscle at injected site at 5 mg/kg, sc after 3 months", "assay_type": "ADME, organism-based, Canis lupus familiaris, Muscle tissue", "parameters": "dose 5 mg/kg, route subcutaneous", "settings": "read-out: Drug uptake"}, "[8]": {"test": "Drug level in Beagle dog skin at non-injected site at 5 mg/kg administered intramuscularly after 6 months", "assay_type": "ADME, organism-based, Canis lupus familiaris, Zone of skin", "parameters": "dose 5 mg/kg, route intramuscular", "settings": "im, read-out: Drug uptake"}, "[9]": {"test": "Plasma concentration in male Beagle dog at 400 mg/kg, sc after 3 months", "assay_type": "ADME, organism-based, Canis lupus familiaris", "parameters": "dose 400 mg/kg, route subcutaneous"}, "[10]": {"test": "Plasma concentration in male Beagle dog at 200 mg/kg administered intramuscularly after 3 months", "assay_type": "ADME, organism-based, Canis lupus familiaris", "parameters": "dose 200 mg/kg, route intramuscular", "settings": "im"}, "[11]": {"test": "Plasma concentration in male Beagle dog at 400 mg/kg administered intramuscularly after 3 months", "assay_type": "ADME, organism-based, Canis lupus familiaris", "parameters": "dose 400 mg/kg, route intramuscular", "settings": "im"}, "[12]": {"test": "Drug level in male Beagle dog thymus at 400 mg/kg, sc after 3 months", "assay_type": "ADME, organism-based, Canis lupus familiaris", "parameters": "dose 400 mg/kg, route subcutaneous", "settings": "read-out: Drug uptake"}, "[13]": {"test": "Plasma concentration in female Beagle dog at 200 mg/kg, sc after 3 months", "assay_type": "ADME, organism-based, Canis lupus familiaris", "parameters": "dose 200 mg/kg, route subcutaneous"}, "[14]": {"test": "Drug level in female Beagle dog spleen at 400 mg/kg, sc after 3 months", "assay_type": "ADME, organism-based, Canis lupus familiaris", "parameters": "dose 400 mg/kg, route subcutaneous", "settings": "read-out: Drug uptake"}, "[15]": {"test": "Drug level in female Beagle dog spleen at 400 mg/kg administered intramuscularly after 3 months", "assay_type": "ADME, organism-based, Canis lupus familiaris", "parameters": "dose 400 mg/kg, route intramuscular", "settings": "im, read-out: Drug uptake"}, "[16]": {"test": "Drug level in female Beagle dog thymus at 200 mg/kg, sc after 3 months", "assay_type": "ADME, organism-based, Canis lupus familiaris", "parameters": "dose 200 mg/kg, route subcutaneous", "settings": "read-out: Drug uptake"}, "[17]": {"test": "Drug level in female Beagle dog thymus at 400 mg/kg, sc after 3 months", "assay_type": "ADME, organism-based, Canis lupus familiaris", "parameters": "dose 400 mg/kg, route subcutaneous", "settings": "read-out: Drug uptake"}, "[18]": {"test": "Ratio of drug level in spleen to plasma in male Beagle dog at 400 mg/kg, sc after 1 month", "assay_type": "ADME, organism-based, Canis lupus familiaris", "parameters": "dose 400 mg/kg, route subcutaneous"}, "[19]": {"test": "Ratio of drug level in spleen to plasma in male Beagle dog at 200 mg/kg administered intramuscularly after 1 month", "assay_type": "ADME, organism-based, Canis lupus familiaris", "parameters": "dose 200 mg/kg, route intramuscular", "settings": "im"}, "[20]": {"test": "Ratio of drug level in spleen to plasma in male Beagle dog at 400 mg/kg administered intramuscularly after 1 month", "assay_type": "ADME, organism-based, Canis lupus familiaris", "parameters": "dose 400 mg/kg, route intramuscular", "settings": "im"}, "[21]": {"test": "Ratio of drug level in thymus to plasma in male Beagle dog at 400 mg/kg, sc after 1 month", "assay_type": "ADME, organism-based, Canis lupus familiaris", "parameters": "dose 400 mg/kg, route subcutaneous"}, "[22]": {"test": "Ratio of drug level in thymus to plasma in male Beagle dog at 200 mg/kg administered intramuscularly after 1 month", "assay_type": "ADME, organism-based, Canis lupus familiaris", "parameters": "dose 200 mg/kg, route intramuscular", "settings": "im"}, "[23]": {"test": "Ratio of drug level in thymus to plasma in male Beagle dog at 200 mg/kg administered intramuscularly after 3 months", "assay_type": "ADME, organism-based, Canis lupus familiaris", "parameters": "dose 200 mg/kg, route intramuscular", "settings": "im"}, "[24]": {"test": "Plasma concentration in Beagle dog at 5 mg/kg administered intramuscularly after 1 month", "assay_type": "ADME, organism-based, Canis lupus familiaris", "parameters": "dose 5 mg/kg, route intramuscular", "settings": "im"}, "[25]": {"test": "Plasma concentration in Beagle dog at 5 mg/kg, sc after 1 month", "assay_type": "ADME, organism-based, Canis lupus familiaris", "parameters": "dose 5 mg/kg, route subcutaneous"}, "[26]": {"test": "Drug level in Beagle dog liver at 5 mg/kg, sc after 3 months", "assay_type": "ADME, organism-based, Canis lupus familiaris", "parameters": "dose 5 mg/kg, route subcutaneous", "settings": "read-out: Drug uptake"}, "[27]": {"test": "Drug level in Beagle dog lymph node iliac at 5 mg/kg administered intramuscularly after 6 months", "assay_type": "ADME, organism-based, Canis lupus familiaris", "parameters": "dose 5 mg/kg, route intramuscular", "settings": "im, read-out: Drug uptake"}}}
{"smiles": "Cc1cc(/C=C/C#N)cc(C)c1Nc1ccnc(Nc2ccc(C#N)cc2)n1", "note": "[RILPIVIRINE]", "values": [{"measurement": "AUC(0-t) at 4416 h", "setting": "[1]", "value": 39.4, "unit": "µg·h/mL"}, {"measurement": "Tmax", "setting": "Canis familiaris", "value": 144, "unit": "h"}, {"measurement": "concentration at 2191.5 h", "setting": "[2]", "value": "< 0.001", "unit": "µg/mL"}, {"measurement": "Cp", "setting": "Plasma [3]", "value": "BLD"}, {"measurement": "concentration at 4383 h", "setting": "[4]", "value": "< 0.001", "unit": "µg/mL"}, {"measurement": "Cp", "setting": "Plasma [5]", "value": "BLD"}, {"measurement": "concentration at 2191.5 h", "setting": "[6]", "value": 0.0033, "unit": "µg/mL"}, {"measurement": "concentration at 2191.5 h", "setting": "[7]", "value": 467, "unit": "ng/g"}, {"measurement": "concentration at 4383 h", "setting": "[8]", "value": 6.7, "unit": "ng/g"}, {"measurement": "concentration at 2191.5 h", "setting": "[9]", "value": 0.0484, "unit": "µg/mL"}, {"measurement": "concentration at 2191.5 h", "setting": "[10]", "value": 0.0092, "unit": "µg/mL"}, {"measurement": "concentration at 2191.5 h", "setting": "[11]", "value": 0.0221, "unit": "µg/mL"}, {"measurement": "concentration at 2191.5 h", "setting": "[12]", "value": 173, "unit": "ng/g"}, {"measurement": "concentration at 2191.5 h", "setting": "[13]", "value": 0.0268, "unit": "µg/mL"}, {"measurement": "concentration at 2191.5 h", "setting": "[14]", "value": 67.5, "unit": "ng/g"}, {"measurement": "concentration at 2191.5 h", "setting": "[15]", "value": 46.1, "unit": "ng/g"}, {"measurement": "concentration at 2191.5 h", "setting": "[16]", "value": 105, "unit": "ng/g"}, {"measurement": "concentration at 2191.5 h", "setting": "[17]", "value": 101, "unit": "ng/g"}, {"measurement": "Kp at 730.5 h", "setting": "[18]", "value": 2.9}, {"measurement": "Kp at 730.5 h", "setting": "[19]", "value": 1.8}, {"measurement": "Kp at 730.5 h", "setting": "[20]", "value": 2.2}, {"measurement": "Kp at 730.5 h", "setting": "[21]", "value": 2.9}, {"measurement": "Kp at 730.5 h", "setting": "[22]", "value": 3.2}, {"measurement": "Kp at 2191.5 h", "setting": "[23]", "value": 3.8}, {"measurement": "concentration at 730.5 h", "setting": "[24]", "value": 0.0113, "unit": "µg/mL"}, {"measurement": "concentration at 730.5 h", "setting": "[25]", "value": 0.0168, "unit": "µg/mL"}, {"measurement": "concentration at 2191.5 h", "setting": "[26]", "value": 45.6, "unit": "ng/g"}, {"measurement": "concentration at 4383 h", "setting": "[27]", "value": 10.7, "unit": "ng/g"}]}
